Experimental data: patent publication US11446287B2, “Compounds and methods for EP300 or CBP modulation and indications therefor” (Opna Immuno-Oncology SA, priority 2019, dated 2022)

These compounds were tested against T1, Recombinant human CBP containing the bromodomain (CBP-BD (1043-1159)) (Homo sapiens, UniProt Q92793) (assay: CBP Alphascreen binding assay). Settings: read-out: CREBBP (CBP) IC50.
T1 construct: Recombinant human CBP bromodomain (CBP-BD (1043-1159)); made in house; host or cells: E. coli BL21-CodonPlus (DE3), modified pET vector
T1 sequence (Q92793 1081-1197): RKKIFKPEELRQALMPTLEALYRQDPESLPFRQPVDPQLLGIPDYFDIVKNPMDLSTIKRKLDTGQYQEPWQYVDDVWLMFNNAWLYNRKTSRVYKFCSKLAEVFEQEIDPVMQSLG
Method in brief: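 Buffer: 50 mM HEPES pH 7.5, 50 mM NaCl, 0.01% BSA, 0.01% Triton X-100, 2 mM DTT. The signal was normalised to plate controls and fitted with a four-parameter curve to give IC50.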
`Cc1noc(C)c1-c1cnc2c(c1)c(-c1ccc(C(=O)O)cc1OC(F)(F)F)cn2-c1ccc(F)cc1F` [P-0232, 4-(1-(2,4-difluorophenyl)-5-(3,5-dimethylisoxazol-4-yl)-1H-pyrrolo[2,3-b]pyridin-3-yl)-3-(trifluoromethoxy)benzoic acid] gave an IC50 of 0.1 to 1000 nM.
In the case of `Cc1noc(C)c1-c1cnc2c(c1)c(-c1ccc(F)c(C(=O)O)c1)cn2C(c1ccccn1)C1CCCC1` (stereo not shown) [P-0016, 5-(1-(cyclopentyl(pyridin-2-yl)methyl)-5-(3,5-dimethylisoxazol-4-yl)-1H-pyrrolo[2,3-b]pyridin-3-yl)-2-fluorobenzoic acid], the IC50 is reported as 0.1 to 1000 nM.
Work on `CCOc1cccc(C#N)c1-n1cc(-c2ccccc2)c2ncc(-c3c(C)noc3C)cc21` [P-0206, 2-(6-(3,5-dimethylisoxazol-4-yl)-3-phenyl-1H-pyrrolo[3,2-b]pyridin-1-yl)-3-ethoxybenzonitrile] yielded an IC50 of 0.1 to 1000 nM.
With `Cc1noc(C)c1-c1cnc2c(c1)c(-c1ccc(C(=O)O)cc1OC(F)(F)F)cn2-c1ccnc(C(C)C)c1` [P-0203, 4-(5-(3,5-dimethylisoxazol-4-yl)-1-(2-isopropylpyridin-4-yl)-1H-pyrrolo[2,3-b]pyridin-3-yl)-3-(trifluoromethoxy)benzoic acid] the IC50 was 0.1 to 1000 nM.
`COc1cc(C(=O)O)ccc1-c1c(C(F)(F)F)n([C@@H](C)c2ccccn2)c2cc(-c3c(C)noc3C)cnc12` [P-0236, (S)-4-(6-(3,5-dimethylisoxazol-4-yl)-1-(1-(pyridin-2-yl)ethyl)-2-(trifluoromethyl)-1H-pyrrolo[3,2-b]pyridin-3-yl)-3-methoxybenzoic acid] showed an IC50 of 0.1 to 1000 nM.
For `Cc1noc(C)c1-c1cnc2c(c1)c(-c1ccc(C(=O)O)cc1OC(F)(F)F)cn2S(=O)(=O)C1CC1` [P-0202, 4-(1-(cyclopropylsulfonyl)-5-(3,5-dimethylisoxazol-4-yl)-1H-pyrrolo[2,3-b]pyridin-3-yl)-3-(trifluoromethoxy)benzoic acid], the IC50 was 0.1 to 1000 nM.
Compound `Cc1noc(C)c1-c1cnc2c(c1)c(-c1ccc(C(=O)O)cc1OC(F)(F)F)cn2-c1ccccc1F` [P-0223, 4-(5-(3,5-dimethylisoxazol-4-yl)-1-(2-fluorophenyl)-1H-pyrrolo[2,3-b]pyridin-3-yl)-3-(trifluoromethoxy)benzoic acid] has an IC50 of 0.1 to 1000 nM.
In the case of `Cc1noc(C)c1-c1cnc2c(c1)c(-c1ccc(C(=O)O)cc1OC(F)(F)F)cn2-c1ncccc1C(F)(F)F` [P-0180, 4-(5-(3,5-dimethylisoxazol-4-yl)-1-(3-(trifluoromethyl)pyridin-2-yl)-1H-pyrrolo[2,3-b]pyridin-3-yl)-3-(trifluoromethoxy)benzoic acid], the IC50 is reported as 0.1 to 1000 nM.
`COc1ccc(C(=O)O)cc1-c1c(C(F)(F)F)n([C@@H](C)c2ccccn2)c2cc(-c3c(C)noc3C)cnc12` [P-0239, (S)-3-(6-(3,5-dimethylisoxazol-4-yl)-1-(1-(pyridin-2-yl)ethyl)-2-(trifluoromethyl)-1H-pyrrolo[3,2-b]pyridin-3-yl)-4-methoxybenzoic acid] was tested, and the IC50 was 1000 to 8000 nM.
`CCOc1cc(C(=O)O)cc(OCC)c1-n1cc(C2=CCC(F)(F)CC2)c2ncc(-c3c(C)noc3C)cc21` [P-0208, 4-(3-(4,4-difluorocyclohex-1-en-1-yl)-6-(3,5-dimethylisoxazol-4-yl)-1H-pyrrolo[3,2-b]pyridin-1-yl)-3,5-diethoxybenzoic acid] gave an IC50 of 0.1 to 1000 nM.
`CCOc1cc(C(=O)O)cc(OCC)c1-n1cc(-c2cncc(Cl)c2)c2ncc(-c3c(C)noc3C)cc21` [P-0193, 4-(3-(5-chloropyridin-3-yl)-6-(3,5-dimethylisoxazol-4-yl)-1H-pyrrolo[3,2-b]pyridin-1-yl)-3,5-diethoxybenzoic acid] gave an IC50 of 0.1 to 1000 nM.
Work on `CCOc1cc(C(=O)O)cc(OCC)c1-n1cc(-c2cccnc2)c2ncc(-c3c(C)noc3C)cc21` [P-0173, 4-(6-(3,5-dimethylisoxazol-4-yl)-3-(pyridin-3-yl)-1H-pyrrolo[3,2-b]pyridin-1-yl)-3,5-diethoxybenzoic acid] yielded an IC50 of 0.1 to 1000 nM.
With `Cc1noc(C)c1-c1cnc2c(c1)c(-c1ccnc(C(=O)O)c1)cn2C(c1ccccn1)C1CCCC1` (stereo not shown) [P-0017, 4-(1-(cyclopentyl(pyridin-2-yl)methyl)-5-(3,5-dimethylisoxazol-4-yl)-1H-pyrrolo[2,3-b]pyridin-3-yl)picolinic acid] the IC50 was 0.1 to 1000 nM.
Work on `CCOc1cc(C(=O)O)cc(OCC)c1-n1cc(-c2ccnc(F)c2)c2ncc(-c3c(C)noc3C)cc21` [P-0222, 4-(6-(3,5-dimethylisoxazol-4-yl)-3-(2-fluoropyridin-4-yl)-1H-pyrrolo[3,2-b]pyridin-1-yl)-3,5-diethoxybenzoic acid] yielded an IC50 of 0.1 to 1000 nM.
Work on `Cc1noc(C)c1-c1cnc2c(c1)c(-c1ccncc1)cn2C(c1ccccn1)C1CCCC1` (stereo not shown) [P-0019, 4-(1-(cyclopentyl(pyridin-2-yl)methyl)-3-(pyridin-4-yl)-1H-pyrrolo[2,3-b]pyridin-5-yl)-3,5-dimethylisoxazole] yielded an IC50 of 1000 to 8000 nM.
`Cc1noc(C)c1-c1cnc2c(c1)c(-c1ccc(C(=O)O)cc1C#CC1CC1)cn2[C@@H](C)c1ccccn1` [P-0178, (S)-3-(cyclopropylethynyl)-4-(5-(3,5-dimethylisoxazol-4-yl)-1-(1-(pyridin-2-yl)ethyl)-1H-pyrrolo[2,3-b]pyridin-3-yl)benzoic acid] showed an IC50 of 1000 to 8000 nM.
Work on `CCOc1cc(C(=O)O)cc(OCC)c1-n1cc(-c2ccc(C3CC3)nc2)c2ncc(-c3c(C)noc3C)cc21` [P-0192, 4-(3-(6-cyclopropylpyridin-3-yl)-6-(3,5-dimethylisoxazol-4-yl)-1H-pyrrolo[3,2-b]pyridin-1-yl)-3,5-diethoxybenzoic acid] yielded an IC50 of 0.1 to 1000 nM.
In the case of `CCOc1cc(C(=O)O)cc(OCC)c1-n1cc(-c2ccc(OC)cc2F)c2ncc(-c3c(C)noc3C)cc21` [P-0194, 4-(6-(3,5-dimethylisoxazol-4-yl)-3-(2-fluoro-4-methoxyphenyl)-1H-pyrrolo[3,2-b]pyridin-1-yl)-3,5-diethoxybenzoic acid], the IC50 is reported as 0.1 to 1000 nM.
`Cc1noc(C)c1-c1cnc2c(c1)c(-c1cccc(CC(=O)O)c1)cn2C(c1ccccn1)C1CCCC1` (stereo not shown) [P-0018, 2-(3-(1-(cyclopentyl(pyridin-2-yl)methyl)-5-(3,5-dimethylisoxazol-4-yl)-1H-pyrrolo[2,3-b]pyridin-3-yl)phenyl)acetic acid] showed an IC50 of 0.1 to 1000 nM.
For `CCOc1cc(C(=O)O)cc(OCC)c1-n1cc(-c2ccc(C#N)cc2F)c2ncc(-c3c(C)noc3C)cc21` [P-0217, 4-(3-(4-cyano-2-fluorophenyl)-6-(3,5-dimethylisoxazol-4-yl)-1H-pyrrolo[3,2-b]pyridin-1-yl)-3,5-diethoxybenzoic acid], the IC50 was 0.1 to 1000 nM.
`Cc1noc(C)c1-c1cnc2c(c1)c(-c1ccc(C(=O)O)cc1OC(F)(F)F)cn2CCN1CCOCC1` [P-0191, 4-(5-(3,5-dimethylisoxazol-4-yl)-1-(2-morpholinoethyl)-1H-pyrrolo[2,3-b]pyridin-3-yl)-3-(trifluoromethoxy)benzoic acid] was tested, and the IC50 was 0.1 to 1000 nM.
Work on `Cc1cc(C(=O)O)ccc1-c1c(C(F)(F)F)n([C@@H](C)c2ccccn2)c2cc(-c3c(C)noc3C)cnc12` [P-0235, (S)-4-(6-(3,5-dimethylisoxazol-4-yl)-1-(1-(pyridin-2-yl)ethyl)-2-(trifluoromethyl)-1H-pyrrolo[3,2-b]pyridin-3-yl)-3-methylbenzoic acid] yielded an IC50 of 0.1 to 1000 nM.
`Cc1noc(C)c1-c1cnc2c(-c3ccc(F)cc3F)cn(-c3ccc(C(=O)O)cc3OC(F)(F)F)c2c1` [P-0229, 4-(3-(2,4-difluorophenyl)-6-(3,5-dimethylisoxazol-4-yl)-1H-pyrrolo[3,2-b]pyridin-1-yl)-3-(trifluoromethoxy)benzoic acid] gave an IC50 of 0.1 to 1000 nM.
With `Cc1noc(C)c1-c1cnc2c(c1)c(-c1ccc(C(=O)O)cc1OC1CCC1)cn2[C@@H](C)c1ccccn1` [P-0179, (S)-3-cyclobutoxy-4-(5-(3,5-dimethylisoxazol-4-yl)-1-(1-(pyridin-2-yl)ethyl)-1H-pyrrolo[2,3-b]pyridin-3-yl)benzoic acid] the IC50 was 0.1 to 1000 nM.
In the case of `Cc1noc(C)c1-c1cnc2c(c1)c(-c1ccc(C(=O)O)cc1OC(F)(F)F)cn2-c1ncccc1Cl` [P-0183, 4-(1-(3-chloropyridin-2-yl)-5-(3,5-dimethylisoxazol-4-yl)-1H-pyrrolo[2,3-b]pyridin-3-yl)-3-(trifluoromethoxy)benzoic acid], the IC50 is reported as 0.1 to 1000 nM.
Compound `CCOc1cc(C(=O)O)cc(OCC)c1-n1cc(-c2ccc(C(=O)NC3CC3)cc2)c2ncc(-c3c(C)noc3C)cc21` [P-0218, 4-(3-(4-(cyclopropylcarbamoyl)phenyl)-6-(3,5-dimethylisoxazol-4-yl)-1H-pyrrolo[3,2-b]pyridin-1-yl)-3,5-diethoxybenzoic acid] has an IC50 of 0.1 to 1000 nM.
Work on `Cc1noc(C)c1-c1cnc2c(c1)c(-c1ccc(C(=O)O)cc1OCC(F)(F)F)cn2C(C1CC1)C1CC1` [P-0214, 4-(1-(dicyclopropylmethyl)-5-(3,5-dimethylisoxazol-4-yl)-1H-pyrrolo[2,3-b]pyridin-3-yl)-3-(2,2,2-trifluoroethoxy)benzoic acid] yielded an IC50 of 0.1 to 1000 nM.
With `Cc1noc(C)c1-c1cnc2c(-c3cn(C)nc3C3CC3)c(C(F)(F)F)n([C@@H](C)c3ccccn3)c2c1` [P-0237, (S)-4-(3-(3-cyclopropyl-1-methyl-1H-pyrazol-4-yl)-1-(1-(pyridin-2-yl)ethyl)-2-(trifluoromethyl)-1H-pyrrolo[3,2-b]pyridin-6-yl)-3,5-dimethylisoxazole] the IC50 was 0.1 to 1000 nM.
Work on `CCOc1cccc(Cl)c1-n1cc(-c2ccccc2)c2ncc(-c3c(C)noc3C)cc21` [P-0224, 4-(1-(2-chloro-6-ethoxyphenyl)-3-phenyl-1H-pyrrolo[3,2-b]pyridin-6-yl)-3,5-dimethylisoxazole] yielded an IC50 of 1000 to 8000 nM.
`Cc1noc(C)c1-c1cnc2c(c1)c(-c1ccc(C(=O)O)cc1)cn2C(C)c1ccc(F)cn1` (stereo not shown) [P-0014, 4-(5-(3,5-dimethylisoxazol-4-yl)-1-(1-(5-fluoropyridin-2-yl)ethyl)-1H-pyrrolo[2,3-b]pyridin-3-yl)benzoic acid] was tested, and the IC50 was 0.1 to 1000 nM.
`Cc1noc(C)c1-c1cnc2c(c1)c(-c1c(Cl)cc(C(=O)O)cc1Cl)cn2[C@@H](C)c1ccccn1` [P-0197, (S)-3,5-dichloro-4-(5-(3,5-dimethylisoxazol-4-yl)-1-(1-(pyridin-2-yl)ethyl)-1H-pyrrolo[2,3-b]pyridin-3-yl)benzoic acid] was tested, and the IC50 was 0.1 to 1000 nM.
